We go through 20 molecules from US11730714B2, “Compounds for the treatment of neuromuscular disorders” (NMD PHARMA A/S, priority 2017, dated 2023).

The structures appear in SMILES notation. Where two headings read alike, the source gives them in different places.

Format in all cases: cell-based
In one test the target is T1, human CIC-1 channels (Homo sapiens, UniProt P35523).
T1 construct: host or cells: CHO (Chinese hamster ovary) cells, cryopreserved, used directly after thawing
As to the kind of experiment: Automated patch-clamp on human CIC-1 expressed in CHO cells (shift in half activation voltage V1/2). The conditions noted are these: compound in intracellular solution vs vehicle control patches; CHO cells expressing human ClC-1. The procedure:
FIG. 13A-13B: FIG. 13A illustrates the voltage protocol used to evoke currents in whole cell patches of CHO cells expressing human CIC-1 channels.
The investigatory goal of these experiments was to evaluate how compounds affect the open probability and current amplitude of human CIC-1 channels expressed in CHO cells. Experiments were performed using an automated patch clamp system that allowed high throughput testing of whole cell patches together with both intracellular and extracellular addition of compound.
Automated whole cell patch clamp experiments were performed with the Qpatch 16 system (Sophion Bioscience, Ballerup, Denmark) at room temperature. Data acquisition and analysis were performed in the Qassay software (ver. 5.6, Odense).
To obtain tail currents, the membrane potential was stepped to −100 mV after each test voltage for 300 ms and then relaxed to −30 mV for 2 sec between sweeps (FIG. 3). I/V relationships for whole cell instant and steady state current amplitudes were obtained by plotting average current densities at the beginning and at the end of the 300 ms step against the membrane potential (FIG. 4).
In order to determine the relative overall open probability (Po), the instantaneous tail currents were normalized to the maximal tail current obtained following the most positive voltage step and plotted against the test voltage. Plots of normalized tail currents from each whole cell patch were then fitted to a Boltzmann function allowing determination of half activation voltages (V1/2, FIG. 5).
Osmolality adjusted to […] using sucrose.
Intracellular solutions contained: 80 mM […], 60 mM CsCl, 5/1 mM KOH/EGTA, 10 mM HEPES, 10 mM NaCl, pH adjusted to 7.2 with NaOH (2 M). Osmolality adjusted to ˜320 mOsm using sucrose.
Cells used in patch clamp experiments were Chinese hamster ovary cells (CHO) constitutively expressing human CIC-1 channels. The amino acid sequence encoded by the cDNA used to create this cell line was identical to the translated sequence for GenBank accession number NM_000083.2. Cells were produced by Charles River (Catalogue CT6175, Cleveland Ohio, USA) in a cryopreserved format. Experiments were performed on the cells directly after thawing (3×10^6 cells used in each experiment).
To evaluate the compound effect on CIC-1, when applied directly to the intracellular side of the cell membrane, the half activation voltage, V1/2, was determined from whole cell patches with compound added to the intracellular solution and then compared to V1/2 determined from control cell patches with only vehicle added to the intracellular solution. Additionally, the effect of extracellular added compound was evaluated by determine V1/2 and steady state current amplitudes before and after exchanging the extracellular solution to contain compound.
The difference in half activation voltage of CIC-1 channels, […]V1/2, was determined as the difference between the cell patches treated intracellularly with compound and control cells patches and is reported in Table 4 below. A positive shift in […]V1/2 is reflecting CIC-1 channel inhibition by the tested compound. P-values of <0.05 is considered significant.
Background: In patch-clamp work, channel activity is measured electrically.

Test [1] relates to isolated rat soleus muscles. In words: Recovery of nerve-stimulated force in isolated rat soleus muscles exposed to sub-maximal tubocurarine. The procedure:
Experiments were performed using rat soleus muscles from either young (4-wk-old) or adult Wistar rats (12-14-week-old). Animal handling, killing and isolation of muscle is described elsewhere All experiments were performed using normal Krebs-Ringer bicarbonate solution (NKR). In solutions with elevated Mg^2+, MgCl2 was added to NKR-solution causing minor increases in osmolarity and ionic strength. In solutions with elevated K^+, 4 mM NaCl was replaced by 4 mM KCl in the NKR.
In all contraction experiments, isometric force production was determined and force produced during contractions was quantified by measuring the integral of the force response (AUC). Stimulation and force recordings have been described elsewhere. […] In these latter experiments, extracellular recordings of action potentials (M-waves) could be measured without temporal overlap with stimulation artefacts.
The aim was to find compounds that by inhibition of CIC-1 channels can recover nerve-stimulated force under conditions of fatigue including conditions where fatigue is caused by compromised neuromuscular transmission. Neuromuscular transmission dysfunction can develop because of both pre- and/or post-synaptic complications in connection with a disorder or as part of neuromuscular blockade during/after surgery. In the initial series of drug testing, experiments were performed with isolated muscles in the presence of sub-maximal ACh receptor antagonist tubocurarine. Since the inclusion of tubocurarine caused a partial loss of neuromuscular transmission this experiment mimics the conditions in myasthenia gravis and neuromuscular blockade. To mimic conditions with pre-synaptic complication (Lambert Eaton syndrome, motor neuron disorder, polyneuropathy) the intact nerve-muscle preparations were incubated at elevated extracellular Mg^2+, which is known to suppress release of ACh from nerve terminals of motor neurons.
The experiments also illustrate that field stimulation of the entire nerve-muscle preparation selectively activates the motor nerve when short-duration pulses (0.02 vs 0.2 ms) were used. In FIG. 1A the preparation was stimulated either via field stimulation or via nerve-stimulation using a suction electrode. With the suction electrode only the nerve could be stimulated. When exposed to a submaximal concentration of the ACh receptor antagonist tubocurarine (0.2 μM) a clear drop in peak force and a further decline (or fade) in force during the stimulation developed. This drop in force clearly reflected compromised neuromuscular transmission, as the decline in peak force and fading were not seen with direct stimulation of the muscle. […] Thus, loss of M-wave and force with tubocurarine reflected partial blockade of neuromuscular function. Such fading of force and M-waves during stimulation represent clinical hallmarks of both myasthenia gravis and neuromuscular blockade in connection with surgery. In FIG. 1B, observations with normal (0.2 ms) and short-duration (0.02 ms) pulses have been compared. It can be seen that only with short-duration pulses did tubocurarine cause a decline in peak force and fading (FIG. 1B). This confirms that short-duration pulses in field stimulation could be used as specific nerve-stimulation. […] Elevated extracellular Mg^2+ could thus be used to partially block neuromuscular transmission and thus be used as a model of conditions with compromised pre-synaptic function (Lambert Eaton syndrome, amyotrophic lateral sclerosis, spinal muscular atrophy). […]

The target of a further test is T2, CIC-1 channels (Rattus norvegicus, UniProt P35524).
T2 construct: Gm was measured in individual fibres of whole rat soleus muscles; from tissue; host or cells: soleus muscle of adult (12-14 week old) Wistar rats
T2 sequence (P35524 1-994): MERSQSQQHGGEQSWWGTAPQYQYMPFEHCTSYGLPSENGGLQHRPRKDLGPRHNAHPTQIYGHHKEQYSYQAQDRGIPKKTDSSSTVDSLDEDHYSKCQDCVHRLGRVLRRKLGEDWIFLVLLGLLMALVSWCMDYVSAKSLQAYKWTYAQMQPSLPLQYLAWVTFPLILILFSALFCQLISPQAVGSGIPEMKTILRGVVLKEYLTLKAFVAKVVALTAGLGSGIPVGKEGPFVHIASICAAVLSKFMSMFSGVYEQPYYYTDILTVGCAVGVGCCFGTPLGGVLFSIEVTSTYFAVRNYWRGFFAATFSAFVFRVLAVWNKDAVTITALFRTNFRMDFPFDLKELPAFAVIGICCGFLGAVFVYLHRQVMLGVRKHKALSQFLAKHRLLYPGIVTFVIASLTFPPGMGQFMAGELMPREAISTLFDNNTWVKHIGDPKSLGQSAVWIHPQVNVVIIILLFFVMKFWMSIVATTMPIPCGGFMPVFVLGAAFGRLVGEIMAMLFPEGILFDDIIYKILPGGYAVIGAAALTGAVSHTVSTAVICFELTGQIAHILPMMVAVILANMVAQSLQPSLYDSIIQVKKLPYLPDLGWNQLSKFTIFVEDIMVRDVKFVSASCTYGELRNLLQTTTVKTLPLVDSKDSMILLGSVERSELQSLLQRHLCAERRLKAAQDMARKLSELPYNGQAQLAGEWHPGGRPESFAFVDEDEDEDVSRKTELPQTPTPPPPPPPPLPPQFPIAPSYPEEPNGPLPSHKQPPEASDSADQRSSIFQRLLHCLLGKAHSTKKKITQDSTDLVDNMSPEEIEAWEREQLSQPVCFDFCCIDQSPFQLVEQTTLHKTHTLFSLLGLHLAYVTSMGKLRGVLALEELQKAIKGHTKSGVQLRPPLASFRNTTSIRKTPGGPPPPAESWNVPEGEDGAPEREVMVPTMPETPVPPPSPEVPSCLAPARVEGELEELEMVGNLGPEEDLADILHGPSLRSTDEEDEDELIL
As to the kind of experiment: Electrophysiological measurement of compound inhibition of CIC-1 in rat muscle (Gm, EC50). The conditions noted are these: rat soleus muscle fibres.

Setting [2] is: three micro-electrode Gm measurement, read-out: EC50 (inhibition of ClC-1 ion channel, Gm).

T1 sequence (P35523 whole entry): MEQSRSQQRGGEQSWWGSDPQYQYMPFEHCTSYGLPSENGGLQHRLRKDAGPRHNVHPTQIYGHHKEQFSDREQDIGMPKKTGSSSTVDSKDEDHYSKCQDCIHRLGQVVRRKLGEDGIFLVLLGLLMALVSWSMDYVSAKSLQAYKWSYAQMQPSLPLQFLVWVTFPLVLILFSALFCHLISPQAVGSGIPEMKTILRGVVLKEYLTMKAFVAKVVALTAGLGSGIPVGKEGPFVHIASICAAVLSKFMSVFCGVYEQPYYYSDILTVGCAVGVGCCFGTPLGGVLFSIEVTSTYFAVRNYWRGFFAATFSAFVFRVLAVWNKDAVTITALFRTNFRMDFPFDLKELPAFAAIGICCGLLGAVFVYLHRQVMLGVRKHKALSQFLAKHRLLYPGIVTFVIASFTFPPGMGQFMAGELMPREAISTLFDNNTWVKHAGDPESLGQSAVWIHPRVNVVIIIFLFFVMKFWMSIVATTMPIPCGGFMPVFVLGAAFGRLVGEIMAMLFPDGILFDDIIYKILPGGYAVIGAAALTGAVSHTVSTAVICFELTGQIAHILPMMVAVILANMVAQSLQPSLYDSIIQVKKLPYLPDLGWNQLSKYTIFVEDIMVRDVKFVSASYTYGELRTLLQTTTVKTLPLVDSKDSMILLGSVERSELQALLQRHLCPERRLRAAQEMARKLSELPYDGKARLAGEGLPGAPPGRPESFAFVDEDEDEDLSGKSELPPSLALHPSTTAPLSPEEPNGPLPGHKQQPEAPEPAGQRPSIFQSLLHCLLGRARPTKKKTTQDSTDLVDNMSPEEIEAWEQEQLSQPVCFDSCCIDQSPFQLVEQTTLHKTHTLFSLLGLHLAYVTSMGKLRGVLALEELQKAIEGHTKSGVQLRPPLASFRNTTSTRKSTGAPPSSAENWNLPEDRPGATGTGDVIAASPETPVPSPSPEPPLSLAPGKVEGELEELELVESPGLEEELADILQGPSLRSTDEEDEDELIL

As to `C[C@H](Oc1ccc(Cl)cc1F)C(=O)O` [Compound A-38, (2S)-2-(4-chloro-2-fluorophenoxy)propanoic acid], the “ΔV½ (difference in half activation voltage of ClC-1)” value at human CIC-1 channels was 17.4 mV.
On the same count and under the same terms, with `O=C(O)[C@H](CCF)Oc1ccc(Br)cc1` [Compound A-87, (2S)-2-(4-bromophenoxy)-4-fluorobutanoic acid] the figure was 16.4 mV.
Consider `CC(Oc1ccc(Cl)cc1)C(=O)Oc1ccc(Cl)cc1` (centres unmarked) [Compound C11, 4-chlorophenyl 2-(4-chlorophenoxy)propanoate], for which, in test [1], the “50 μM % change after addition (AUC of nerve-stimulated force)” value is 46% and the “150 μM % change after addition (AUC of nerve-stimulated force)” value came to 54%.
`CC(C)[C@H](Oc1ccc(Br)cc1F)C(=O)O` [Compound A-27, (2S)-2-(4-bromo-2-fluorophenoxy)-3-methylbutanoic acid]: on human CIC-1 channels, the “ΔV½ (difference in half activation voltage of ClC-1)” value was found to be 20.2 mV.
In the case of `O=C(O)[C@H](CCF)Oc1ccc(Br)cc1F` [Compound A-85, (2S)-2-(4-bromo-2-fluorophenoxy)-4-fluorobutanoic acid], the “ΔV½ (difference in half activation voltage of ClC-1)” value at human CIC-1 channels is 12.5 mV.
In general, EC50 refers to the concentration giving half of the maximal effect. With `[2H]CC([2H])[C@H](Oc1ccc(Br)cc1)C(=O)O` (stereo partly drawn) [Compound A-76, (2S)-2-(4-bromophenoxy)(3,4-^2H2)butanoic acid], the EC50 on CIC-1 channels (setting [2]) turned out to be 3.8 ± 2.1 µM. For the same molecule, the “ΔV½ (difference in half activation voltage of ClC-1)” value at human CIC-1 channels worked out at 26.2 mV.
With `O=C(O)[C@@H](Oc1ccc(Br)cc1F)C(F)F` [Compound A-9, (2R)-2-(4-bromo-2-fluorophenoxy)-3,3-difluoropropanoic acid], the “ΔV½ (difference in half activation voltage of ClC-1)” value at human CIC-1 channels was found to be 15.2 mV.
Still for that read-out and setting: with `[2H]c1cc(Br)cc([2H])c1O[C@@H](C)C(=O)O` [Compound A-6, (2S)-2-[4-bromo(2,6-^2H2)phenoxy]propanoic acid] the figure was 13.0 mV; with `C[C@H](Oc1ccc(Br)cc1I)C(=O)O` [Compound A-8, (2S)-2-(4-bromo-2-iodophenoxy)propanoic acid], 9.4 mV.
Still for that read-out and setting: with `C[C@H](Oc1ccc(Br)cc1Br)C(=O)O` [Compound A-40, (2S)-2-(2,4-dibromophenoxy)propanoic acid] the figure was 5.19 mV.
Regarding `[2H][C@@](CF)(Oc1ccc(Br)cc1)C(=O)O` [Compound A-82, (2R)-2-(4-bromophenoxy)-3-fluoro(2-^2H)propanoic acid], the EC50 at CIC-1 channels (setting [2]) is 5.2 ± 1.3 µM. Also, the “ΔV½ (difference in half activation voltage of ClC-1)” value at human CIC-1 channels amounted to 19.0 mV.
Consider `C#CC[C@H](Oc1ccc(Br)cc1F)C(=O)O` [Compound A-69, (2S)-2-(4-bromo-2-fluorophenoxy)pent-4-ynoic acid], for which the “ΔV½ (difference in half activation voltage of ClC-1)” value on human CIC-1 channels came out at 32.6 mV.
Still for that read-out and setting: the same measure for `CC[C@H](Oc1ccc(Br)cc1F)C(=O)O` [Compound A-58, (2S)-2-(4-bromo-2-fluorophenoxy)butanoic acid]: 28.2 mV; for `C#CC[C@H](Oc1ccc(Br)cc1Br)C(=O)O` [Compound A-66, (2S)-2-(2,4-dibromophenoxy)pent-4-ynoic acid]: 27.4 mV; for `O=C(O)[C@H](CF)Oc1ccc(Br)cc1` [Compound A-26, (2R)-2-(4-bromophenoxy)-3-fluoropropanoic acid]: 19.7 mV.
For the molecule `CC(C)[C@@H](Oc1ccc(Br)cc1F)C(=O)O` [Compound A-4, (2R)-2-(4-bromo-2-fluoraphenoxy)-3-methylbutanoic acid], the EC50 on CIC-1 channels (sigmoidal fit of average Gm, read-out: EC50 (inhibition of CIC-1, reduction of Gm)) is greater than 80 µM.
As to `COC[C@H](Oc1ccc(Br)cc1Br)C(=O)O` [Compound A-74, (2S)-2-(2,4-dibromophenoxy)-3-methoxypropanoic acid], on human CIC-1 channels, the “ΔV½ (difference in half activation voltage of ClC-1)” value amounted to 10.4 mV.
Same read-out and setting: the same measure for `C[C@@H](F)[C@H](Oc1ccc(Br)cc1F)C(=O)O` [Compound A-95, (2R,3R)-2-(4-bromo-2-fluorophenoxy)-3-fluorobutanoic acid]: 10.3 mV.
On the same count and under the same terms, with `C#CC[C@H](Oc1ccc(Br)cc1Cl)C(=O)O` [Compound A-67, (2S)-2-(4-bromo-2-chlorophenoxy)pent-4-ynoic acid] the figure was 37.8 mV; with `O=C(O)[C@@H](Oc1ccc(Br)cc1F)C1CC1` [Compound A-89, (2S)-2-(4-bromo-2-fluorophenoxy)-2-cyclopropylacetic acid], 10.3 mV.
